Tested on: ESR1 target gene trefoil factor 1 (TFF1)
Assay: E2-dependent ESR1 target gene (TFF1) mRNA in MCF7 cells, RT qPCR
Format: cell-based
Settings: 10^-9 M E2, ligand 10^-11-10^-6 M, 24 hours
Method: RNA isolation and analysis was performed as described (Wardell et al., (2001) Biochem Pharmacol 82 (2):122-130). mRNA abundance was calculated using the ΔΔCT method (Wardell et al., (2001) Biochem Pharmacol 82 (2):122-130). Primer sequences are available upon request.
The ability of RAD1901 (FIG. 5A) to modulate the […] estradiol (E2) dependent transcriptional activity of the human estrogen receptor alpha (ESR1) and human estrogen receptor beta (ESR2) was assessed in transiently transfected SKBR3 cells using a synthetic reporter gene. […] For FIG. 5B, SKBR3 cells were plated in phenol red free media supplemented with charcoal stripped FBS (CFS) 24 hours prior to transfection with an ERE-luciferase reporter together with ESR1 or ESR2 expression vectors. 24 hours after transfection, cells were treated with E2 (10 nM) together with RAD1901 (10^−10-10^−6 M) for 24 hours prior to harvest and analysis of luciferase activity normalized to co-transfected β-galactosidase control. […] DNA content as assessed by fluorescence was measured as a surrogate for cell proliferation. The relative increase in DNA fluorescence was calculated by normalizing to baseline values detected in a duplicate plate of cells that was harvested on day 1 prior to the initial treatment. […] For FIG. 5F, expression of ESR1 target genes in tumors was analyzed essentially as in (C).

For CCNCCc1ccc(CN(CC)c2cc(OC)ccc2[C@@H]2CCc3cc(O)ccc3C2)cc1 [RAD1901, (R)-6-{2-{ethyl[4-(2-ethylaminoethyl)benzyl]amino}-4-methoxyphenyl}-5,6,7,8-tetrahydronaphthalen-2-ol], the “E2-dependent induction of target gene transcription (TFF1 mRNA)” value was “inhibited”.
